{
  "source": "paper PMC7729733",
  "about": "“Biological Properties of New Chiral 2-Methyl-5,6,7,8-tetrahydroquinolin-8-amine-based Compounds” (Molecules, 2020)",
  "key": {"HCT-116": {"system": "HCT-116", "design": "method as in PMID 30253345", "details": "cytotoxicity; cited from earlier work"}, "[1]": {"system": "HMEC-1 (human dermal microvascular endothelial cells)", "details": "read-out: IC50 HMEC-1; reference compound; cited from earlier work"}, "[2]": {"system": "CEM (human T-lymphocyte cells)", "details": "read-out: IC50 CEM; reference compound; cited from earlier work"}, "[3]": {"system": "HeLa (human cervix carcinoma cells)", "details": "read-out: IC50 HeLa; reference compound; cited from earlier work"}, "human topoisomerase I": {"molecular_target": "T1, human topoisomerase I (Homo sapiens, UniProt P11387)", "T1 construct": "purchased TopoGEN", "T1 sequence (P11387 1-765)": "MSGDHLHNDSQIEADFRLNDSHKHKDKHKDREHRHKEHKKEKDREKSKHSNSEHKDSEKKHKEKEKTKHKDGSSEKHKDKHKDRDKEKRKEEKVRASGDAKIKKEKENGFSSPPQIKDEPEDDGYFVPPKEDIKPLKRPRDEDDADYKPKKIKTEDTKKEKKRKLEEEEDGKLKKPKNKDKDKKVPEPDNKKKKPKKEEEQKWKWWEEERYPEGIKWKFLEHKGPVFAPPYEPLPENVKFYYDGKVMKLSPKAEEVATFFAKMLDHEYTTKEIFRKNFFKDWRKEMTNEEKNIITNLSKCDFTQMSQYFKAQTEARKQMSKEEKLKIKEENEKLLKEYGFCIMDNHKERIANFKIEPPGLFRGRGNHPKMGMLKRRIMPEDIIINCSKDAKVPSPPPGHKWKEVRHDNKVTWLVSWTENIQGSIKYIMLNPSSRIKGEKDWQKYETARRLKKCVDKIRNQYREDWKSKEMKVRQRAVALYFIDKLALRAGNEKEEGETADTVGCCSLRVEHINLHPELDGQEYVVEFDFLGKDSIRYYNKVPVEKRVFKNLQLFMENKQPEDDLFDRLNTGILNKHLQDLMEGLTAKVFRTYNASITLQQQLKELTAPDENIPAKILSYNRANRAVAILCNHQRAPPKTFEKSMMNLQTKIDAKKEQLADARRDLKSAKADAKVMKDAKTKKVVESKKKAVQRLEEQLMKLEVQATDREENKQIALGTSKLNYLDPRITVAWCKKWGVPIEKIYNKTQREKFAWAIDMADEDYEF", "assay": "Topoisomerase I relaxation assay", "assay_type": "biochemical", "details": "supercoiled pBR322; 60 min at 37 °C", "experimental": "(§1) Figure 3SI. Effect of compound (R)-5a on the relaxation of supercoiled pBR322 DNA by human recombinant topoisomerase I or II. Supercoiled plasmid pBR322 DNA (DNA) was incubated with topo I (topo I) or II in the absence (topo II) and in the presence of (R)-5a at indicated […]\n(§2) Topoisomerase I and II relaxation assay\n(§3) Supercoiled pBR322 plasmid DNA (20 ng, Fermentas Life Sciences) and 5U topoisomerase I (human topoisomerase I, TopoGEN) or alternatively, supercoiled pBR322 plasmid DNA (0.25 μg) and 1U topoisomerase II (human topoisomerase II alpha, Inspiralis) were incubated in the presence of test compound as indicated for 60 min at 37 °C in 20 µL reaction buffer.Reactions were stopped by adding 4 μL stop buffer (5% sodium dodecyl sulfate, 0.125% b romophenol blue, and 30% glycerol), 50 μg/mL proteinase K (Sigma) and incubating for a further 30 min at 37 °C.\n(§4) The samples were separated by electrophoresis on a 1% agarose gel at room temperature. The gels were stained with ethidium bromide 1 μg/mL in TAE buffer (0.04 M Tris-acetate and 0.001 M EDTA), transilluminated by UV light, and fluorescence emission was visualized by a CCD camera coupled to a Bio-Rad Gel Doc XR apparatus.\n(§5) (1 picture or pasted object on this page, not shown here)"}, "[4]": {"system": "A2780 (ovarian carcinoma)", "assay": "Cell growth assay (Trypan blue), A2780 cells", "assay_type": "cell-based, human", "experimental": "(§6) A2780 (human ovarian carcinoma) and HT-29 (human colorectal adenocarcinoma) were grown in RPMI 1640 (Sigma Chemical Co., St. Louis, MO, USA), and MSTO-211H (human biphasic mesothelioma) were grown in RPMI 1640 (Sigma Chemical Co.) supplemented with 2.38 g/L Hepes, 0.11 g/L pyruvate sodium, and 2.5 g/L glucose. Then, 1.5 g/L NaHCO3, 10% heat-inactivated fetal calf serum (Biowest), 100 U/mL penicillin, 100 μg/mL streptomycin, and 0.25 μg/mL amphotericin B (Sigma Chemical Co.) were added to the media. The cells were cultured at 37 °C in a moist atmosphere of 5% carbon dioxide in air. Cells (2.5–3 × 10^4) were seeded into each well of a 24-well cell culture plate. After incubation for 24 h, various concentrations of the test agents were added to the complete medium and incubated for a further 72 h. A Trypan blue assay was performed to determine cell viability. Cytotoxicity data were expressed as IC50 values, i.e., the concentration of the test compound able to induce a 50% reduction in cell number compared with control cultures."}, "A2780 cells [5]": {"system": "A2780 cells", "assay": "Cell cycle analysis (propidium iodide, flow cytometry)", "assay_type": "cell-based, human", "details": "28 h, mean ± SD of four experiments", "experimental": "A2780 cells ([…]) were seeded into a 6-well culture plate in complete medium. After incubation for 24 h, the test compound was added at the indicated concentration and cells were incubated for a further 28 h. After treatment, cells were harvested, centrifugated, and 300–500 × 10^3 cells were fixed and permeabilized with 70% ice-cold ethanol at 4 °C for 20 min. The cells were washed twice with PBS and incubated in a staining solution containing 0.1 mg/mL RNAse and 36 μg/mL propidium iodide for 20 min at room temperature. The DNA content analysis was performed using a FACSCanto II flow cytometer (Becton-Dickinson, Mountain View, CA, USA)."}, "[6]": {"system": "HT-29 (colorectal adenocarcinoma)", "assay": "Cell growth assay (Trypan blue), HT-29 cells", "assay_type": "cell-based, human", "details": "Homo sapiens, HT-29, pure enantiomers, 72 h", "experimental": "as §6"}, "[7]": {"molecular_target": "T2, human topoisomerase II alpha (Homo sapiens, UniProt P11388)", "T2 construct": "purchased Inspiralis", "T2 sequence (P11388 whole entry)": "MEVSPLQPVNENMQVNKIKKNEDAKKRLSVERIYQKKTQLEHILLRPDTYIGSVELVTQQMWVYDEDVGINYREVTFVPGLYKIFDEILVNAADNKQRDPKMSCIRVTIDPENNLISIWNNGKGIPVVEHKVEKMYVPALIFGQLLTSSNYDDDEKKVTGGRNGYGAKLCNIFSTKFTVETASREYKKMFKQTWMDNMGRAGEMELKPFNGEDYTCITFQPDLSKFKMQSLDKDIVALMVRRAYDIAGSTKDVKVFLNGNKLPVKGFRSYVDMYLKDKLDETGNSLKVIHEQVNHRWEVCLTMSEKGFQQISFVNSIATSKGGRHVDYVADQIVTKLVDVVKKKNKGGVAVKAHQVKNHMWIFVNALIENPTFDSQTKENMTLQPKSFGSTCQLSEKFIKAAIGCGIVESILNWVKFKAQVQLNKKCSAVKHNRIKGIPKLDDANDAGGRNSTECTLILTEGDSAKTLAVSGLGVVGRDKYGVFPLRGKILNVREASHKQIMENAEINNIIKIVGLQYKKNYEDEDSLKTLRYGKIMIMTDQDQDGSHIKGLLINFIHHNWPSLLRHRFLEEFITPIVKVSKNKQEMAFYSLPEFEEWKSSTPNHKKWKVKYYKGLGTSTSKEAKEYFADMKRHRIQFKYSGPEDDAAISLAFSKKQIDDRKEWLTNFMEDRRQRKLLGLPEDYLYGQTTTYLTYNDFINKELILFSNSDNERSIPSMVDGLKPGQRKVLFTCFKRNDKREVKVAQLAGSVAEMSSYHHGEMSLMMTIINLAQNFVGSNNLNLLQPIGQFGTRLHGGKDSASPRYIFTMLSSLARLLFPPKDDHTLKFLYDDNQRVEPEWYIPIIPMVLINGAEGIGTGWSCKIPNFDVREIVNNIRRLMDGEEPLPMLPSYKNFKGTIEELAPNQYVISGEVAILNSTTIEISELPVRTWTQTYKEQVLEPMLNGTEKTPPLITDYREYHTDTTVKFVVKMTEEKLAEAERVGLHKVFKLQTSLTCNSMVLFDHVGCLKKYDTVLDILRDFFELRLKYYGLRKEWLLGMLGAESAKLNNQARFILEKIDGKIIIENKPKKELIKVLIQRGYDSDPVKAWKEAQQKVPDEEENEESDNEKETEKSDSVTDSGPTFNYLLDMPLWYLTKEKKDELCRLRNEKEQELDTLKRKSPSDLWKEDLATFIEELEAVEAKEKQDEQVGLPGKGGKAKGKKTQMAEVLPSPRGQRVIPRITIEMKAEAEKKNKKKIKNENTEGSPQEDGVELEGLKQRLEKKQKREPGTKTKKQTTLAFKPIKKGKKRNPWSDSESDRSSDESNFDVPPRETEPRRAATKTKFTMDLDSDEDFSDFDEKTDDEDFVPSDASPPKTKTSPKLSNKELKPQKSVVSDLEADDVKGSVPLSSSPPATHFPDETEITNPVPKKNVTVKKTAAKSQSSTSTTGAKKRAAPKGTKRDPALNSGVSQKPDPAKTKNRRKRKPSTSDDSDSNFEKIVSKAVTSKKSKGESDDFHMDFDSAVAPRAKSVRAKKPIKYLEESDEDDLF", "assay": "Topoisomerase II relaxation assay", "assay_type": "biochemical", "details": "supercoiled pBR322; 60 min at 37 °C", "experimental": "as §1, §2, §3, §4, §5"}, "[8]": {"system": "supercoiled plasmid pBR322 DNA", "assay": "Unwinding assay, electrophoretic mobility of supercoiled DNA", "details": "3 h at 37 °C", "experimental": "Figure 2SI. Effect of compound (R)-5a on the electrophoretic mobility of supercoiled DNA.\nSupercoiled plasmid pBR322 DNA was incubated in the absence or in the presence of (R)-5a at indicated concentrations. The effect of solvent alone on DNA was also assayed (solvent).\nSupercoiled pBR322 plasmid DNA (0.15 µg, Fermentas Life Sciences) was incubated in TAE buffer (0.04 M Tris, 0.02 M Acetic Acid, EDTA 1 mM, pH=8) with test compound at indicated concentrations for 3 h at 37 °C in 10 μL final volume. 3 μL of loading buffer (0.125% bromophenol blue, 0.125% xylene cyanol and 50% glycerol) was added to each sample and DNA was separated by electrophoresis on a 0.8% agarose gel at room temperature. The gels were stained with ethidium bromide (1 μg/mL) in TAE buffer, transilluminated by UV light, and the fluorescence emission was visualized by a CCD camera coupled to a Bio-Rad Gel Doc XR apparatus.\nas §5"}, "[9]": {"system": "MSTO-211H (biphasic mesothelioma)", "assay": "Cell growth assay (Trypan blue), MSTO-211H cells", "assay_type": "cell-based, human", "details": "pure enantiomers", "experimental": "as §6"}, "A2780 cells [10]": {"system": "A2780 cells", "assay": "Measurement of reactive oxygen species (H2DCF-DA)", "assay_type": "cell-based, human", "details": "50 μM, 120 min of incubation", "experimental": "The intracellular production of ROS was determined by using the cell-permeable fluorogenic probe 2′,7′-dichlorodihydrofluorescein diacetate (H2DCF-DA). A2780 cells (10^4) were seeded in 96-well plates and incubated for 24 h. The medium was then removed, and the cells washed with PBS and incubated with 10 μM H2DCF-DA in the dark for 20 min at 37 °C and 5% carbon dioxide in air. Afterwards, the medium was removed, cells washed with PBS, and PBS/10 mM glucose containing the test compound was added. ROS production was estimated by monitoring the fluorescence increase of the probe (λex = 480, λem = 530) using a PerkinElmer VICTOR X3 plate reader."}, "[11]": {"system": "MSTO-211H (biphasic mesothelioma)", "details": "reference compound; cited from earlier work"}, "[12]": {"system": "A2780 (ovarian carcinoma)", "details": "reference compound; cited from earlier work"}, "[13]": {"system": "HT-29 (colorectal adenocarcinoma)", "details": "reference compound; cited from earlier work"}},
  "note": "Like-named read-outs stand apart in the source and are kept apart here.",
  "data": [
    {"compound": "O=C(Sc1cccc2cccnc12)c1ccccc1Cl", "note": "[QCBT7, Quinolin-chlorobenzothiazoate]", "values": [
      {"measurement": "IC50", "setting": "HCT-116", "result": 0.6, "unit": "µM"}
    ]},
    {"compound": "COc1ccc(/C=C\\c2cc(OC)c(OC)c(OC)c2)cc1OP(=O)(O)O", "note": "[CA-4P, Combretastatin A4P]", "values": [
      {"measurement": "IC50", "setting": "[1]", "result": 0.0029, "unit": "µM"},
      {"measurement": "IC50", "setting": "[2]", "result": "0.095 ± 0.006", "unit": "µM"},
      {"measurement": "IC50", "setting": "[3]", "result": "0.079 ± 0.003", "unit": "µM"}
    ]},
    {"compound": "Cc1ccc2c(n1)[C@H](/N=C/c1ncc[nH]1)CCC2", "note": "[(R)-5a, (E)-1-(1H-imidazol-2-yl)-N-(2-methyl-5,6,7,8-tetrahydroquinolin-8-yl)methanimine]", "values": [
      {"measurement": "effect on the relaxation ability of topoisomerase I", "setting": "human topoisomerase I", "result": "unable to induce"},
      {"measurement": "inhibitory effect on the A2780 cell line with respect to its counterpart (S)-5a", "setting": "[4]; R enantiomer versus S enantiomer", "result": "~3", "unit": "fold"},
      {"measurement": "IC50", "setting": "[4]; pure enantiomers, 72 h, Trypan blue", "result": "5.4 ± 1.3", "unit": "µM"},
      {"measurement": "cell percentage in G0/G1", "setting": "A2780 cells [5]; 2.5 μM", "result": "61.2 ± 0.9", "unit": "%"},
      {"measurement": "cell percentage in G2/M", "setting": "A2780 cells [5]; 2.5 μM", "result": "13.4 ± 0.7", "unit": "%"},
      {"measurement": "cell percentage in S", "setting": "A2780 cells [5]; 2.5 μM", "result": "25.5 ± 0.6", "unit": "%"},
      {"measurement": "cell percentage in G0/G1", "setting": "A2780 cells [5]; 5 μM", "result": "63.7 ± 0.6", "unit": "%"},
      {"measurement": "cell percentage in G2/M", "setting": "A2780 cells [5]; 5 μM", "result": "12.1 ± 0.6", "unit": "%"},
      {"measurement": "cell percentage in S", "setting": "A2780 cells [5]; 5 μM", "result": "24.1 ± 1.1", "unit": "%"},
      {"measurement": "cell percentage in G0/G1", "setting": "A2780 cells [5]; 10 μM", "result": "70.3 ± 1.2", "unit": "%"},
      {"measurement": "cell percentage in G2/M", "setting": "A2780 cells [5]; 10 μM", "result": "9.8 ± 0.6", "unit": "%"},
      {"measurement": "cell percentage in S", "setting": "A2780 cells [5]; 10 μM", "result": "19.8 ± 0.9", "unit": "%"},
      {"measurement": "cell percentage in G0/G1", "setting": "A2780 cells [5]; 20 μM", "result": "71.6 ± 0.7", "unit": "%"},
      {"measurement": "cell percentage in G2/M", "setting": "A2780 cells [5]; 20 μM", "result": "9.0 ± 0.8", "unit": "%"},
      {"measurement": "cell percentage in S", "setting": "A2780 cells [5]; 20 μM", "result": "19.5 ± 0.4", "unit": "%"},
      {"measurement": "IC50", "setting": "[6]", "result": "> 20", "unit": "µM"},
      {"measurement": "effect on the relaxation ability of topoisomerase II", "setting": "[7]", "result": "unable to induce"},
      {"measurement": "modification in the electrophoretic migration of supercoiled plasmid DNA", "setting": "[8]", "result": "unable to induce any modification"},
      {"measurement": "IC50", "setting": "[9]; Homo sapiens, MSTO-211H, 72 h, Trypan blue", "result": "15.1 ± 1.5", "unit": "µM"},
      {"measurement": "cytotoxic effect on MSTO-211H (in words)", "setting": "[9]", "result": "appreciable inhibition on cell growth"},
      {"measurement": "intracellular amount of ROS with respect to untreated cells (control)", "setting": "A2780 cells [10]", "result": "more than 4 fold"}
    ]},
    {"compound": "COc1cc(NS(C)(=O)=O)ccc1Nc1c2ccccc2nc2ccccc12", "note": "[m-AMSA, Meta-amsacrine]", "values": [
      {"measurement": "IC50", "setting": "[11]", "result": "0.019 ± 0.001", "unit": "µM"},
      {"measurement": "IC50", "setting": "[12]", "result": "0.027 ± 0.005", "unit": "µM"},
      {"measurement": "IC50", "setting": "[13]", "result": "0.039 ± 0.004", "unit": "µM"}
    ]}
  ]
}
